Patent US20200255844A1, “MULTIPLEXED RECEPTOR-LIGAND INTERACTION SCREENS” (THE REGENTS OF THE UNIVERSITY OF CALIFORNIA, priority 2017, published 2020)

Experiments:
Type in all cases: cell-based, mouse
[1] = test system: MOR170-1; experiment: High-throughput multiplexed odorant screening (Smell-seq), 96-well, barcode RNA-seq readout; settings: OR MOR170-1; pair called as hit, FDR=1%
Protocol: (§1) 10. High-Throughput Odorant Screening
(§2) The OR library cell line was thawed from a liquid nitrogen frozen stock into a T-225 flask (Corning) three days before seeding into a 96-well plate for screening. The library was seeded at 6,666 cells per well in 100 ul of DMEM. 24 hours later a working concentration of 1 ug/ml of doxycycline in DMEM was added to the wells. 24 hours after induction, the media was removed from each plate and replaced with 25 ul of odorant diluted in OptiMEM. Each odor was added at three different concentrations (10 uM, 100 uM, 1 mM) in triplicate with the same amount of final DMSO (1%). Each plate contained two control odorants at a three concentration (10 uM, 100 uM, 1 mM) in triplicate and three wells containing 1% DMSO dissolved in media. The library was incubated with odorants for three hours in a cell culture incubator with the lids removed.
(§3) After odor incubation, media was pipetted out of the plates and cells were lysed by adding 25 uL of ice-cold Cells-to-cDNA II Lysis Buffer (Thermo Fisher) and pipetting up and down to homogenize and lyse cells. The lysate was then heated to 75° C. for 15 minutes and flash frozen with liquid nitrogen and kept at −80 C until further processing. Then 0.5 uL DNase I (New England Biolabs) was added to lysate, and incubated at 37° C. for 15 minutes. To anneal the RT primer, 5 ul of lysate from each well was combined with 2.5 ul of 10 mM dNTPs (New England Biosciences), 1 ul of 2 uM gene specific RT primer (OL003), and 1.5 ul of H2O. The reaction was heated to 65° C. for 5 min and cooled back down to 0° C. After annealing, 1 ul of M-MuLV Reverse Transcriptase (Enzymatics), 1 ul of buffer, and 0.25 ul of RNase Inhibitor (Enzymatics) were added to each reaction. Reactions were incubated at 42° C. for 60 min and the RT enzyme was heat inactivated at 85° C. for 10 min.
(§4) For each batch, qPCR was performed on a few wells (OL005F and OL013) with SYBR FAST qPCR Mastermix to determine the number of cycles necessary for PCR based library preparation. The reaction and cycling conditions are optimized as follows: 95° C. for 3 minutes, 40 cycles of 95° C. for 3 seconds and 60° C. for 20 seconds. After qPCR, 5 ul of each RT reaction was combined with 0.4 ul of 10 uM primers containing sequencing adaptors (OL005F and OL013), 10 ul of NEB-Next Q5 Mastermix (New England Biosciences) and 4.2 ul H2O, the PCR was carried out according to the manufacturer's protocol. The forward primer contains the P7 adaptor sequence and an index identifying the well in the assay and the reverse primer contains the P5 adaptor sequence and an index identifying the plate in the assay. PCR products were pooled together by plate and purified with the DNA Clean and Concentrator Kit. Library concentrations were quantified using a Tape Station 2200 and a Qubit (Thermo Fisher). The libraries were sequenced with two index reads and a single end 75-bp read on a NextSeq 500 in high-output mode (Illumina).
(§5) 11. Analysis of Next-Generation Sequencing Data
(§6) Samples were identified via indexing by their PCR indexes adapters unique for each well (5′ end) and unique for each plate (3′ end). The well barcodes followed the 7 bp indexing scheme in (Illumina Sequencing Library Preparation for Highly Multiplexed Target Capture and Sequencing Matthias Meyer, Martin Kircher, Cold Spring Harb Protoc; 2010; doi:10.1101/pdb.prot5448). The plate indexing scheme followed the Illumina indexing scheme. Sequencing data was demultiplexed and 15 bp barcode sequences were counted with only exact matches by custom python and bash scripts.
(§7) 12. Statistical Methods for Calling Hits
(§8) Count data was then analyzed using the differential expression package EdgeR. To filter out ORs with low representation, we set a cutoff that an OR had to contain at least 0.5% of the reads from more than 399 of the 1954 test samples. This filtered out 3 of 42 ORs which were underrepresented in the cell library (MOR172-1, MOR176-1 and MOR181-1). […]

[2] = test system: MOR139-1; experiment: High-throughput multiplexed odorant screening (Smell-seq), barcode RNA-seq readout; settings: OR MOR139-1; pair called as hit, FDR=1%
Text: (§9) We subsequently screened 182 odorants at three concentrations in triplicate against the OR cell library, the equivalent of ˜85,000 individual luciferase assays including controls (FIG. 10A, Table 2). Each 96-well plate in the assay contained positive control odorants and solvent DMSO wells for normalization (FIG. 16). We used the EdgeR software package to determine differentially responsive ORs based on a negative binomial model of barcode counts. We found 114 OR-odorant interactions (out of 7,200 possible), 81 of which are novel, and 24 interactions with 15 orphan receptors (FIG. 10C, FIG. 17 and Supplementary Table 4) (FDR=1%; Benjamini-Hochberg correction). Overall 28 of 39 receptors were activated by at least one odorant, and 68 of 182 odorants activated at least one OR (Table 4). We chose 37 interactions of at least 1.2 fold induction to test individually with a previously developed transient OR assay that has several important differences (FIG. 18). Of the 28 interactions called as hits at an FDR of 1%, 21 of them replicated in this orthogonal system (FIG. 17). […] Conversely, we also detect 14 interactions that this previous study tested, but called negative.

[3] = test system: MOR189-1; experiment: as above; settings: OR MOR189-1; pair called as hit, FDR=1%
Text: as §9

[4] = test system: Olfr62; experiment: as above; settings: OR Olfr62; pair called as hit, FDR=1%
Text: as §9

[5] = test system: MOR25-1; experiment: as above; settings: OR MOR25-1; pair called as hit, FDR=1%
Text: as §9

[6] = test system: MOR5-1; experiment: High-throughput multiplexed odorant screening (Smell-seq), 96-well, barcode RNA-seq readout; settings: OR MOR5-1; pair called as hit, FDR=1%
Protocol: as §1, §2, §3, §4, §5, §6, §7, §8

[7] = test system: MOR23-1; experiment: High-throughput multiplexed odorant screening (Smell-seq), barcode RNA-seq readout; settings: OR MOR23-1; pair called as hit, FDR=1%
Text: as §9

[8] = test system: MOR30-1; experiment: as above; settings: OR MOR30-1; pair called as hit, FDR=1%
Text: as §9

Compound: c1ccc2ncccc2c1
- Minimum Activating Concentration [1]: 100 µM
- Minimum Activating Concentration [2]: 100 µM
- Minimum Activating Concentration [3]: 1000 µM
- Minimum Activating Concentration [4]: 1000 µM

Compound: C=C(C)C1CC=C(C)C(=O)C1 (single isomer, unassigned; (-)) [(−)-Carvone]
- Minimum Activating Concentration [5]: 1000 µM

Compound: CCCCC(Br)C(=O)O (centres unmarked) [2-Bromohexanoic acid]
- Minimum Activating Concentration [1]: 1000 µM
- Minimum Activating Concentration [6]: 1000 µM

Compound: CCCCCCC(Br)C(=O)O (centres unmarked) [2-Bromooctanoic acid]
- Minimum Activating Concentration [6]: 1000 µM
- Minimum Activating Concentration [7]: 1000 µM

Compound: CC(=O)OCCc1ccccc1 [2-Phenethyl acetate]
- Minimum Activating Concentration [1]: 1000 µM

Compound: O=C1Cc2ccccc2O1 [2-coumaranone]
- Minimum Activating Concentration [4]: 1000 µM

Compound: CCC(C)c1nccnc1OC (centres unmarked) [2-sec-Butyl-3-methoxypyrazine]
- Minimum Activating Concentration [2]: 1000 µM

Compound: O=C1CCOc2ccccc21 [4-Chromanone]
- Minimum Activating Concentration [1]: 100 µM
- Minimum Activating Concentration [2]: 1000 µM
- Minimum Activating Concentration [3]: 1000 µM

Compound: CCc1ccc(O)cc1 [4-Ethylphenol]
- Minimum Activating Concentration [1]: 1000 µM

Compound: O=C(O)CCCCCBr [6-Bromohexanoic acid]
- Minimum Activating Concentration [6]: 1000 µM
- Minimum Activating Concentration [7]: 100 µM

Compound: C=C(C)[C@@H]1CC[C@@H](C)C(=O)C1 [(+)-Dihydrocarvone]
- Minimum Activating Concentration [2]: 1000 µM

Compound: CC(C)=C1CC[C@@H](C)CC1=O [(+)-Pulegone]
- Minimum Activating Concentration [2]: 1000 µM

Compound: COc1ccc(C=O)cc1 [Anisaldehyde]
- Minimum Activating Concentration [1]: 1000 µM

Compound: O=C(c1ccccc1)c1ccccc1 [Benzophenone]
- Minimum Activating Concentration [4]: 1000 µM

Compound: CC(=O)OCc1ccccc1 [Benzyl acetate]
- Minimum Activating Concentration [1]: 1000 µM

Compound: CCCC=O [Butanal]
- Minimum Activating Concentration [2]: 1000 µM

Compound: OCC=Cc1ccccc1 [Cinnamyl alcohol]
- Minimum Activating Concentration [1]: 1000 µM

Compound: CCCCCCCCCC=O [Decanal]
- Minimum Activating Concentration [5]: 1000 µM
- Minimum Activating Concentration [8]: 100 µM

Compound: CCCCCCCCCC(=O)O [Decanoic-Acid]
- Minimum Activating Concentration [6]: 1000 µM
- Minimum Activating Concentration [5]: 100 µM
- Minimum Activating Concentration [8]: 10 µM

Compound: CCCCCC1=C(C)CCC1=O [Dihydrojasmone]
- Minimum Activating Concentration [2]: 1000 µM

Compound: CNc1ccccc1C(=O)OC [Dimethyl anthranilate]
- Minimum Activating Concentration [1]: 10 µM
- Minimum Activating Concentration [2]: 1000 µM

Compound: C=CCc1ccc(OC)c(OC)c1 [Eugenol methyl ether]
- Minimum Activating Concentration [1]: 10 µM
- Minimum Activating Concentration [2]: 1000 µM
- Minimum Activating Concentration [3]: 1000 µM

Compound: C=CCc1ccc(O)c(OC)c1 [Eugenol]
- Minimum Activating Concentration [2]: 1000 µM

Compound: CCCCCCC=O [Heptanal]
- Minimum Activating Concentration [7]: 1000 µM

Compound: CC(C)=CCC/C(C)=C\COC(=O)C(C)C [Neryl isobutyrate]
- Minimum Activating Concentration [2]: 1000 µM

Compound: CCCCCCCCC=O [Nonanal]
- Minimum Activating Concentration [6]: 1000 µM
- Minimum Activating Concentration [7]: 1000 µM
- Minimum Activating Concentration [8]: 1000 µM

Compound: CCCCCCCCC(=O)O [Nonanoic Acid]
- Minimum Activating Concentration [6]: 100 µM
- Minimum Activating Concentration [7]: 1000 µM
- Minimum Activating Concentration [5]: 1000 µM
- Minimum Activating Concentration [8]: 100 µM

Compound: CCCCCCCC=O [Octanal]
- Minimum Activating Concentration [6]: 1000 µM
- Minimum Activating Concentration [7]: 100 µM

Compound: O=Cc1ccc2c(c1)OCO2 [Piperonal]
- Minimum Activating Concentration [1]: 1000 µM
- Minimum Activating Concentration [4]: 1000 µM

Compound: COc1cc(C=O)ccc1O [Vanillin]
- Minimum Activating Concentration [1]: 1000 µM

Compound: C/C=C/C(=O)C1=C(C)CCCC1(C)C [beta-Damascone]
- Minimum Activating Concentration [3]: 1000 µM

Compound: CC(=O)/C=C/C1=C(C)CCCC1(C)C [beta-ionone]
- Minimum Activating Concentration [2]: 1000 µM
- Minimum Activating Concentration [3]: 1000 µM

Compound: CCCCC/C=C\CCC=O [cis-4-Decenal]
- Minimum Activating Concentration [6]: 1000 µM

Compound: CC/C=C\CCCCC=O [cis-6-Nonenal]
- Minimum Activating Concentration [6]: 1000 µM
